# Test results: patent US20230115176A1 (Ra Pharmaceuticals, Inc., priority 2019, published 2023)
# Target: T1, Human C5 (Homo sapiens, UniProt P01031)
# T1 construct: purchased Complement Technology
# Test: Red blood cell (RBC) hemolysis assay, luminescent (Example 13, Table 22); also: 1.5% C5-depleted human serum
# Type: cell-based
# Conditions: sheep EA cells, […] C5-depleted human serum, 0.5 nM human C5, 1 hour 37° C., luminescence
# Excerpt: Compound CU0136 is a racemic mixture of Compound CU0186 and CU0187. Numbers in parenthesis following compound numbers indicate alternate enantiomers (as distinguished by retention time during chromatographical separation).
# T1 sequence (P01031 19-1676): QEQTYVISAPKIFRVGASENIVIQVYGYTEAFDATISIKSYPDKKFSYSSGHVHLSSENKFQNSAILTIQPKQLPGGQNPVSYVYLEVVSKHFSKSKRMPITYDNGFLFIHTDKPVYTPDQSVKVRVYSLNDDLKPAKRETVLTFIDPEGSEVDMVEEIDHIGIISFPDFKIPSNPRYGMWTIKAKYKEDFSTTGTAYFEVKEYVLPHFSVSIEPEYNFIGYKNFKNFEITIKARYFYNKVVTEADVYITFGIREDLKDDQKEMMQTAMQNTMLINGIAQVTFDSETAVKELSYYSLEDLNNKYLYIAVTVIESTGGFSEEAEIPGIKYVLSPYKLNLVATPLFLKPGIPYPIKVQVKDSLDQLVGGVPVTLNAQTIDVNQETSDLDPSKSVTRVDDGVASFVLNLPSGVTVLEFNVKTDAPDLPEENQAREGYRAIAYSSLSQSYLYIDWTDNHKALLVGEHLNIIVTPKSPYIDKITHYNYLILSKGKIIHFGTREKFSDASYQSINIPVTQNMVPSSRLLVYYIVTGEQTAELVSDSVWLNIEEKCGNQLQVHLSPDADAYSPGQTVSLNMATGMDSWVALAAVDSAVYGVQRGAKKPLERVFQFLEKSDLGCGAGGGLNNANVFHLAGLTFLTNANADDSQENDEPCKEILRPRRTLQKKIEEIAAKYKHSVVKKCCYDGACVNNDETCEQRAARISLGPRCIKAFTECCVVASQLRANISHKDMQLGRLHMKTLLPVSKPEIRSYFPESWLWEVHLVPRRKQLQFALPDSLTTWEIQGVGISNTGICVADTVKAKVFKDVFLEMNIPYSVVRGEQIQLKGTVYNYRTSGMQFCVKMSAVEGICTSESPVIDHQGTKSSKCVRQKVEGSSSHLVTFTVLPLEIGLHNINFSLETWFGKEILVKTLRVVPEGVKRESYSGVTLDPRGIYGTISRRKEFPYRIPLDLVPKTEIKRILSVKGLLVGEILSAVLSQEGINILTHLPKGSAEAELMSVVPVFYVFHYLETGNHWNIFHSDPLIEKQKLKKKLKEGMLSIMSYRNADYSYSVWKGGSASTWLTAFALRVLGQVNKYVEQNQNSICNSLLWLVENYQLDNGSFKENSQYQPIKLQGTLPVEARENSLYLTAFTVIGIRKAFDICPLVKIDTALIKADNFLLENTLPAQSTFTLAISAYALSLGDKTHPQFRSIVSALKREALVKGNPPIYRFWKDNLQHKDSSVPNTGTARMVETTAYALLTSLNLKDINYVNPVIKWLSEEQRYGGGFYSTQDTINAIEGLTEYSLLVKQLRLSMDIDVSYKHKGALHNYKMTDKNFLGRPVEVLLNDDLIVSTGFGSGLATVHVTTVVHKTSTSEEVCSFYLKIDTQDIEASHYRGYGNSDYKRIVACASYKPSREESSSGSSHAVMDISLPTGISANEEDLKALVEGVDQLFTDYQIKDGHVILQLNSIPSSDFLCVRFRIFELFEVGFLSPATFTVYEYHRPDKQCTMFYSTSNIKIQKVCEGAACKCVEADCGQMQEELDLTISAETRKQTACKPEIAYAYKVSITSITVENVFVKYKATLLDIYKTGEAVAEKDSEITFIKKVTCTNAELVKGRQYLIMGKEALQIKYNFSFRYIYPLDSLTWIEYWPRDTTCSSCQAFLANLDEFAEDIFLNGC
row,Compound,IC50
1,CCCCCOc1cc(N2CCCN(Cc3ccc(CC(=O)N(C)C4CCN(CC)C4)cc3OC)C2=O)ccc1OC (stereo not shown) [CU0177],21.1 nM
2,COc1ccc(N2CCCN(Cc3ccnc4c3ccn4CC(=O)N(C)C)C2=O)cc1OCCCC(F)(F)C(F)(F)F [CU0256],62.7 nM
3,CCCCCOc1cc(N2CCCN(Cc3ccc(CC(=O)N4CCO[C@H](COC)C4)cc3OC)C2=O)ccc1OC [CU0196],21.1 nM
4,CCCCCOc1cc(N2CCCN(Cc3cccc4c3ccn4CC(=O)NC3CNC(=O)C3)C2=O)ccc1OC (stereo not shown) [CU0243],5.5 nM
5,CCCCCOc1cc(N2CCCN(Cc3ccc(CC(=O)N4CCO[C@H](CN(C)C)C4)cc3OC)C2=O)ccc1OC (stereo in doubt) [CU0187],14.8 nM
6,CCCCCOc1cc(N2CCCN(Cc3cccc4c3ccn4CC(=O)NC3(C)COC3)C2=O)ccc1OC [CU0245],12.2 nM
7,CC/C=C\COc1cc(N2CCCN(Cc3cc(F)ccc3OC)C2=O)ccc1OC [CU0194],94.6 nM
8,CCCCCOc1cc(N2CCN(Cc3ccnc4c3ccn4CC(=O)N3CCNC(=O)C3)C2=O)ccc1OC [CU0058],2490 nM
9,COc1ccc(F)cc1CN1CCCN(c2ccc(OC)c(OCc3cccc(OC(F)(F)F)c3)c2)C1=O [CU0221],741 nM
10,COc1ccc(F)cc1CN1CCCN(c2ccc(OC)c(OCCCC3CCCCC3)c2)C1=O [CU0222],69.9 nM
11,COc1ccc(F)cc1CN1CCCN(c2ccc(OC)c(OCCC3CCCCC3)c2)C1=O [CU0216],27 nM
12,CCCCCOc1cc(N2CCCN(Cc3ccc(CNC(=O)OC)cc3OC)C2=O)ccc1OC [CU0137],10 nM
13,COc1ccc(F)cc1CN1CCCN(c2ccc(OC)c(OCCC[C@H]3C[C@H]3C)c2)C1=O [CU0206],11.9 nM
14,CCCCCOc1cc(N2CCCN(Cc3ccc(CNC(=O)OC4CC4)cc3OC)C2=O)ccc1OC [CU0202],10.8 nM
15,CCCCCOc1cc(N2CCCN(Cc3cccc4c3ccn4CC(=O)N(C)C3CCN(CC)C3)C2=O)ccc1OC (stereo not shown) [CU0242],8.2 nM
16,C/C=C\CCCOc1cc(N2CCCN(Cc3cc(F)ccc3OC)C2=O)ccc1OC [CU0225],29.1 nM
17,CCCCCOc1cc(N2CCCN(Cc3ccnc4c3ccn4CCN3CCCC3)C2=O)ccc1OC [CU0254],18.7 nM
18,COc1ccc(N2CCCN(Cc3ccnc4c3ccn4CC(=O)N(C)C)C2=O)cc1OCc1ccccc1 [CU0252],825 nM
19,COc1ccc(F)cc1CN1CCCN(c2ccc(OC)c(OCCCC(C)C)c2)C1=O [CU0217],18.3 nM
20,COc1ccccc1CN1CCCN(c2ccc(OC)c(OCCCC(C)(F)F)c2)C1=O [CU0143],23.3 nM

row,Compound,IC50
1,CCCCCOc1cc(N2CCN(Cc3ccccc3Cl)C2=O)ccc1OC [CU0009],203 nM
2,CCCCCOc1cc(N2CCCN(Cc3ccc(CC(=O)N4CCCOCC4)cc3OC)C2=O)ccc1C1CC1 [CU0114],99.1 nM
3,C=CCCCOc1cc(N2CCCN(Cc3cc(F)ccc3OC)C2=O)ccc1OC [CU0167],39.9 nM
4,COc1ccc(F)cc1CN1CCCN(c2ccc(OC)c(OCc3ccc(C)cc3)c2)C1=O [CU0180],411 nM
5,COc1ccc(N2CCCCN(Cc3ccnc4c3ccn4CC(=O)N(C)C)C2=O)cc1OCCCC(C)C [CU0038],267 nM
6,CCCCCOc1cc(N2CCCN(Cc3cccc4nc(C)oc34)C2=O)ccc1OC [CU0066],243 nM
7,COc1ccc(F)cc1CN1CCCN(c2ccc(OC)c(OCCCc3ccccc3)c2)C1=O [CU0183],238 nM
8,CCCCCOc1cc(N2CCCN(Cc3ccc(Cl)cc3OC)C2=O)ccc1OC [CU0166],92.1 nM
9,CCCCCOc1cc(N2CCCN(Cc3ccc(F)c(C4=CCNCC4)c3)C2=O)ccc1OC [CU0144],109 nM
10,CCCCCOc1cc(N2CCCN(Cc3ccccc3C3CC3)C2=O)ccc1OC [CU0015],519 nM
11,CCCCCOc1cc(N2CCN(Cc3ccnc4c3ccn4CC(=O)N3CCOC(COC)C3)C2=O)ccc1OC (stereo not shown) [CU0047],3140 nM
12,CCCCCOc1cc(N2CCCN(Cc3cccc(-c4cnn(C5CCN(C)CC5)c4)c3OC)C2=O)ccc1OC [CU0157],146 nM
13,CCCCCOc1cc(N2CCCN(Cc3cccc(-c4cnn(CC(C)C)c4)c3F)C2=O)ccc1OC [CU0126],153 nM
14,CCCCCOc1cc(N2CCCN(Cc3ccc(CCOC(=O)N(C)C)cc3OC)C2=O)ccc1OC [CU0204],21.6 nM
15,CCCCCOc1cc(N2CCCN(Cc3cc(-c4cnn(C5CCN(C)CC5)c4)ccc3OC)C2=O)ccc1OC [CU0152],146 nM
16,CCCCCOc1cc(N2CCCN(Cc3cccc(C4=CCNCC4)c3OC)C2=O)ccc1OC [CU0155],43.7 nM
17,CCCCCOc1cc(N2CCCN(Cc3cc(OC)cc(C4=CCNCC4)c3)C2=O)ccc1OC [CU0156],241 nM
18,CCC(F)(F)CCOc1cc(N2CCCN(Cc3ccccc3OC)C2=O)ccc1OC [CU0176],111 nM
19,CCCCCOc1cc(N2CCCN(Cc3cc(C4=CCNCC4)ccc3OC)C2=O)ccc1OC [CU0151],707 nM

# Tested on: not listed separately
# Test: Kinetic solubility in PBS pH 7.4, HPLC-UV (Example 21, Table 27)
# Type: physicochemical
# Conditions: phosphate buffered saline, aqueous buffer, kinetic from dmso stock, 0.5 M PBS, shaken minimum 24 h at approximately 25° C., HPLC-UV 270 nm
# Method: Compounds were analyzed for kinetic solubility values using a standard kinetic solubility assay format. First, test compounds were dissolved in DMSO (Aldrich Chemical Co., Milwaukee, Wis., USA) at a concentration of 0.010 mol/L and used to prepare standard calibrators in DMSO solution. 500.0 μM, 250.0 μM, 125.0 μM, 62.5 μM, 31.2 μM, and 15.6 μM standards were prepared in a Greiner UV-Star clear V-bottom 96-well plate (Greiner-Bio One, Germany) for generating a standard curve. Using Alfa Aesar's Sodium phosphate, 0.2 M buffer solution, pH 7.4 (Alfa Aesar, Haverhill, Mass., USA), aqueous phosphate buffered saline (PBS) was prepared by diluting with Milli-Q water for a final concentration of 0.05 M. The pH of the solution was adjusted to 7.4±0.1 using 0.1 M hydrochloric acid (Fisher Scientific Waltham, Mass., USA) or 0.1 M aqueous sodium hydroxide (Fisher Scientific Waltham, Mass., USA).
# 10 μL of 0.010 mol/L DMSO test compound stock solutions were pipetted to separate 1.5 mL centrifuge tubes in triplicate. To these tubes, 190 μl of 0.05 M PBS was added. Each tube was gently vortexed for 5 sec. The tubes were shaken for a minimum of 24 h at approximately 25° C. After shaking, the solutions were transferred to 0.5 mL centrifuge filter tubes (MilliporeSigma, Burlington, Mass., USA) and centrifuged at 10,000 rpm for 5 min. After centrifugation, supernatants were collected and used for compound concentration analysis.
# Compound concentrations in each solution were determined using high pressure liquid chromatography (HPLC) with ultraviolet (UV) detection and comparison with external standards. For HPLC, a Waters Acquity CSH Phenyl-Hexyl column (2.1 mm×50 mm, 1.7 μm) was used together with a generic gradient method on a Waters H-class system equipped with a diode array detector: Solvent A=0.1% formic acid in water, Solvent B=0.1% formic acid in acetonitrile (MilliporeSigma, Burlington, Mass., USA), flow=0.65 mL/min, (t=0 min: 95% A-5% B, t=4.75 min: 0% A-100% B, t=4.85 min: 0% A-100% B, t=4.86 min: 95% A-5% B, t=5 min: 95% A-5% B). UV quantifications were performed at 270 nm. Solution concentrations were calculated using Microsoft Excel.
row,Compound,solubility kinetic
1,CCCCCOc1cc(N2CCCN(Cc3ccc(CC(=O)N(C)C4CCN(CC)C4)cc3OC)C2=O)ccc1OC (stereo not shown) [CU0177],351 µM
2,COc1ccc(N2CCCN(Cc3ccnc4c3ccn4CC(=O)N(C)C)C2=O)cc1OCCCC(F)(F)C(F)(F)F [CU0256],22 µM
3,CCCCCOc1cc(N2CCCN(Cc3ccc(CC(=O)N4CCO[C@H](COC)C4)cc3OC)C2=O)ccc1OC [CU0196],> 500 µM
4,COc1ccc(N2CCCN(Cc3ccnc4c3c(Cl)cn4CC(=O)N3CCNC(=O)C3)C2=O)cc1OCCCC1CC1 [CU0522],< 10 µM
5,CCCCCOc1cc(N2CCCN(Cc3ccnc4c3c(Cl)cn4Cc3nnnn3C)C2=O)ccc1OC [CU0570],< 10 µM
6,COc1ccc(N2CCCN(Cc3ccnc4c3c(Cl)cn4CC(=O)N(C)C)C2=O)cc1OCCCC(C)(C)C [CU0595],< 10 µM
7,CCCCCOc1cc(N2CCCN(Cc3cccc4c3ccn4CC(=O)NC3CNC(=O)C3)C2=O)ccc1OC (stereo not shown) [CU0243],< 10 µM
8,CCCCCOc1cc(N2CCCN(Cc3ccc(CC(=O)N4CCO[C@H](CN(C)C)C4)cc3OC)C2=O)ccc1OC (stereo in doubt) [CU0187],417 µM
9,CCCCCOc1cc(N2CCCN(Cc3cccc4c3ccn4CC(=O)NC3(C)COC3)C2=O)ccc1OC [CU0245],142 µM
10,CCCCCOc1cc(N2CC[C@H](C)N(Cc3cccc4[nH]cc(Cl)c34)C2=O)ccc1OC [CU0623],364 µM
11,CCCCCOc1cc(N2CCCN(Cc3ccc(C4CNC(=O)O4)cc3OC)C2=O)ccc1OC (stereo not shown) [CU0611],170 µM
12,CCCCCOc1cc(N2CCCN(Cc3ccnc4c3c(Cl)cn4CCOC(=O)N3CCS(=O)(=O)CC3)C2=O)ccc1OC [CU0563],19 µM
13,COc1cc(CNC(C)=O)ccc1CN1CCCN(c2ccc(OC)c(OCCCC3CCC3)c2)C1=O [CU0546],< 10 µM
14,CCCCCOc1cc(N2CCCN(Cc3ccc(Cc4ccccn4)cc3OC)C2=O)ccc1OC [CU0672],440 µM
15,CCCCCOc1cc(N2CCCN(Cc3ccnc4c3c(Cl)cn4CCN3CCS(=O)(=O)CC3)C2=O)ccc1OC [CU0551],12 µM
16,CCCCCOc1cc(N2CCCN(Cc3ccnc4c3c(Cl)cn4CCN3CCCC3)C2=O)ccc1OC [CU0564],249 µM

row,Compound,solubility kinetic
1,CCCCCOc1cc(N2CCCN(Cc3ccnc4c3c(Cl)cn4CC(=O)NC(C)C)C2=O)ccc1OC [CU0553],12 µM
2,CCCCCOc1cc(N2CCCN(Cc3ccnc4c3c(Cl)cn4C(C)C(=O)N3CN(C(C)C)C3)C2=O)ccc1OC (stereo not shown) [CU0620],275 µM
3,COc1ccc(N2CCCN(Cc3ccnc4c3ccn4CC(=O)N(C)C)C2=O)cc1OCCC[C@H]1C[C@@H]1C (racemic) [CU0752],75 µM
4,CCCCCOc1cc(N2CCCN(Cc3ccc(CNC(=O)c4ccnnc4)cc3OC)C2=O)ccc1OC [CU0503],62 µM
5,COc1cc(CCNC2CCN(C)C2=O)ccc1CN1CCCN(c2ccc(OC)c(OCCCC3CC3)c2)C1=O (stereo not shown) [CU0643],> 500 µM
6,CCCCCOc1cc(N2CCCN(Cc3ccnc4c3c(Cl)cn4CCOCCNC(C)=O)C2=O)ccc1OC [CU0559],< 10 µM
7,CCCCCOc1cc(N2CCCN(Cc3ccc(CNC(=O)c4cccnn4)cc3OC)C2=O)ccc1OC [CU0505],60 µM
8,CCCCCOc1cc(N2CCCN(Cc3ccnc4c3c(Cl)cn4Cc3nnn(C)n3)C2=O)ccc1OC [CU0556],< 10 µM
9,CCCCCOc1cc(N2CCCN(Cc3ccnc4c3c(Cl)cn4CCN3CCCS3(=O)=O)C2=O)ccc1OC [CU0577],13 µM
10,CCCCCOc1cc(N2CCCN(Cc3ccc(Cc4cnccn4)cc3OC)C2=O)ccc1OC [CU0614],101 µM
11,CCCCCOc1cc(N2CCCN(Cc3ccc(C4CN(C)C(=O)O4)cc3OC)C2=O)ccc1OC (stereo not shown) [CU0618],179 µM
12,CCCCCOc1cc(N2CCCN(Cc3ccnc4c3ccn4[C@@H]3CCN(C)C3=O)C2=O)ccc1OC [CU0667],139 µM
13,CCCCCOc1cc(N2CCCN(Cc3cncc4c3c(Cl)cn4CC(=O)N(C)C)C2=O)ccc1OC [CU0673],11 µM
14,CCCCCOc1cc(N2CCCN(Cc3ccc(CNC(=O)c4cnccn4)cc3OC)C2=O)ccc1OC [CU0677],71 µM
15,CCCCCOc1cc(N2CCCN(Cc3ccc(CNC(=O)c4cnnn4C)cc3OC)C2=O)ccc1OC [CU0544],50 µM
